From US11261177B2, “Benzoxazinone derivatives useful as herbicides” (REDAG CROP PROTECTION LTD, priority 2017, dated 2022)

What was measured:
Assay type in all cases: in vivo
[1] = tested on: Stellaria media—Chickweed; experiment: Pre-emergence herbicidal assay, 96 cell trays, glasshouse; details: 168 h, second trial (Table 2), assessed 7 days after treatment, read-out: % control of plant growth; for pest or weed control at 200 g/ha: 0.2 kg/ha; for pest or weed control at 1000 g/ha: 1 kg/ha; for pest or weed control at 5000 g/ha: 5 kg/ha
Protocol: (§1) The compounds were screened at three concentrations (0.2, 1 and 5 kg/ha) against 2 weed species (Stellaria media—Chickweed and Lolium perenne). The seeds were sown in the cells of 96 cell trays (4-6 seeds per cell). For the pre-emergence assay, 75 μL of a suspension of the test compound, at the above doses, was added on top of the soil 1 day after sowing. For the post-emergence assay, the seedlings were sprayed with 200 μL of a suspension of the test compound two weeks after sowing. The formulation used is 25% acetone and 75% water/0.01% Tween 20. Each treatment was replicated three times. The plants were kept in a glasshouse (uncontrolled conditions) and assessed 7 days after treatment. A small number of compounds were tested in a first trial. A larger number of compounds were tested in a second trial. The assessment was based on the % control of plant growth in each cell.

Lolium perenne [2] = experiment: as above; details: 168 h, second trial (Table 2), Lollium, assessed 7 days after treatment, read-out: % control of plant growth; for pest or weed control at 200 g/ha: 0.2 kg/ha; for pest or weed control at 1000 g/ha: 1 kg/ha; for pest or weed control at 5000 g/ha: 5 kg/ha
Protocol: as §1

[3] = tested on: Stellaria media—Chickweed; experiment: Post-emergence herbicidal assay, 96 cell trays, glasshouse; details: 168 h, second trial (Table 2), assessed 7 days after treatment, read-out: % control of plant growth; for pest or weed control at 200 g/ha: 0.2 kg/ha; for pest or weed control at 1000 g/ha: 1 kg/ha; for pest or weed control at 5000 g/ha: 5 kg/ha
Protocol: as §1

Lolium perenne [4] = experiment: as above; details: 168 h, second trial (Table 2), Lollium, assessed 7 days after treatment, read-out: % control of plant growth; for pest or weed control at 200 g/ha: 0.2 kg/ha; for pest or weed control at 1000 g/ha: 1 kg/ha; for pest or weed control at 5000 g/ha: 5 kg/ha
Protocol: as §1

Row | SMILES | pest or weed control at 200 g/ha [1] | pest or weed control at 1000 g/ha [1] | pest or weed control at 5000 g/ha [1] | pest or weed control at 200 g/ha (Lolium perenne [2]) | pest or weed control at 1000 g/ha (Lolium perenne [2]) | pest or weed control at 5000 g/ha (Lolium perenne [2]) | pest or weed control at 200 g/ha [3] | pest or weed control at 1000 g/ha [3] | pest or weed control at 5000 g/ha [3] | pest or weed control at 200 g/ha (Lolium perenne [4]) | pest or weed control at 1000 g/ha (Lolium perenne [4]) | pest or weed control at 5000 g/ha (Lolium perenne [4])
1 | C#CCN1C(=O)C2(CC2)Oc2cc(F)c(N3C(=O)c4ccccc4C3=O)cc21 [Example 7] | 80 to 100% | 80 to 100% | 80 to 100% | 20 to 80% | 80 to 100% | 80 to 100% | 80 to 100% | 80 to 100% | 80 to 100% | < 20% | 20 to 80% | 20 to 80%
2 | C#CCN1C(=O)C2(CC2)Oc2cc(F)c(N3C(=O)c4ccc(O)cc4C3=O)cc21 [Example 9] | < 20% | < 20% | 20 to 80% | < 20% | < 20% | 20 to 80% | < 20% | < 20% | 20 to 80% | < 20% | < 20% | 20 to 80%
3 | C#CCN1C(=O)C2(CC2)Oc2cc(F)c(N3C(=O)c4ccc(OC)cc4C3=O)cc21 [Example 10] | 20 to 80% | 80 to 100% | 80 to 100% | < 20% | < 20% | < 20% | 20 to 80% | 80 to 100% | 80 to 100% | < 20% | < 20% | < 20%
4 | C#CCN1C(=O)C2(CC2)Oc2cc(F)c(N3C(=O)C4CC4C3=O)cc21 (stereo not drawn) [Example 13] | 20 to 80% | 80 to 100% | 80 to 100% | < 20% | < 20% | 20 to 80% | 80 to 100% | 80 to 100% | 80 to 100% | < 20% | < 20% | < 20%
5 | C#CCN1C(=O)C2(CC2)Oc2cc(F)c(N3C(=O)C=C(C(F)(F)F)C3=O)cc21 [Example 14] | < 20% | < 20% | < 20% | < 20% | < 20% | < 20% | < 20% | < 20% | < 20% | < 20% | < 20% | < 20%
6 | COC(=O)C(C)N1C(=O)C2(CC2)Oc2cc(F)c(N3C(=O)c4ccc(F)cc4C3=O)cc21 (stereo not drawn) [Example 16] | 80 to 100% | 80 to 100% | 80 to 100% | < 20% | 20 to 80% | 20 to 80% | 80 to 100% | 80 to 100% | 80 to 100% | 20 to 80% | 20 to 80% | 80 to 100%
7 | COC(=O)C(C)N1C(=O)C2(CC2)Oc2cc(F)c(N3C(=O)C=C(C(F)(F)F)C3=O)cc21 (stereo not drawn) [Example 17] | 20 to 80% | 20 to 80% | 80 to 100% | < 20% | 20 to 80% | 20 to 80% | < 20% | 20 to 80% | 20 to 80% | < 20% | < 20% | < 20%
8 | CCOC(=O)C(C)N1C(=O)C2(CC2)Oc2cc(F)c(N3C(=O)C=C(C(F)(F)F)C3=O)cc21 (stereo not drawn) [Example 20] | < 20% | 20 to 80% | 20 to 80% | < 20% | < 20% | < 20% | 20 to 80% | 80 to 100% | 80 to 100% | < 20% | < 20% | < 20%
9 | CCCN1C(=O)C2(CC2)Oc2cc(F)c(N3C(=O)c4ccc(F)cc4C3=O)cc21 [Example 22] | 80 to 100% | 80 to 100% | 80 to 100% | < 20% | 20 to 80% | 20 to 80% | 80 to 100% | 80 to 100% | 80 to 100% | 20 to 80% | 20 to 80% | 80 to 100%
10 | C#CCN1C(=O)C2(CCC2)Oc2cc(F)c(N3C(=O)c4ccc(F)cc4C3=O)cc21 [Example 23] | < 20% | 80 to 100% | 80 to 100% | < 20% | < 20% | 20 to 80% | 80 to 100% | 80 to 100% | 80 to 100% | < 20% | < 20% | < 20%
11 | C#CCN1C(=O)C2(CCC2)Oc2cc(F)c(N3C(=O)C=C(C(F)(F)F)C3=O)cc21 [Example 24] | < 20% | 20 to 80% | 20 to 80% | < 20% | 20 to 80% | 20 to 80% | < 20% | < 20% | < 20% | < 20% | < 20% | < 20%
12 | C#CCN1C(=O)C2(CN(C(=O)OCc3ccccc3)C2)Oc2cc(F)c(N3C(=O)c4ccc(F)cc4C3=O)cc21 [Example 25] | 20 to 80% | 20 to 80% | 20 to 80% | < 20% | < 20% | < 20% | < 20% | < 20% | < 20% | < 20% | < 20% | < 20%
13 | O=C1c2ccc(F)cc2C(=O)N1c1cc2c(cc1F)OC1(CC1)C(=O)N2CC#CI [Example 30, 5-Fluoro-2-(7-fluoro-4-(3-iodoprop-2-yn-1-yl)-3-oxo-3,4-dihydrospiro[benzo[b][1,4]oxazine-2,1′-cyclopropan]-6-yl)isoindoline-1,3-dione] | 80 to 100% | 80 to 100% | 80 to 100% | 20 to 80% | 20 to 80% | 80 to 100% | 80 to 100% | 80 to 100% | 80 to 100% | < 20% | < 20% | < 20%
